# Measurements from patent US20230277698A1, “SILICON-CONTAINING LIGAND COMPOUNDS” (Technische Universität München, priority 2020, published 2023).
# Legend:
# [1] = molecular target: human serum albumin (HSA) (Homo sapiens, UniProt P02768); test: HSA binding by radio inversed affinity chromatography (RIAC); format: in vitro ADME; conditions: 177Lu-labelled; Superdex 75 Increase 10/300 GL, 700 μM HSA in PBS, 0.8 mL/min
# Experimental: A gel filtration column Superdex 75 Increase 10/300 GL (GE Healthcare, Uppsala, Sweden) was beforehand calibrated following the producer's recommendations with a commercially available gel filtration calibration kit (GE Healthcare, Buckinghamshire, UK) comprising conalbumin (MW: 75 kDa), ovalbumin (44 kDa), carbonic anhydrase (29 kDa), ribonuclease A (13.7 kDa) and aprotinin (6.5 kDa) as reference proteins of known molecular weight. RIAC experiments were conducted using a constant flow rate of 0.8 mL/min at rt. A solution of HSA in PBS at physiological concentration (700 μM) was used as the mobile phase. PSMA ligands were labelled as described with molar activities of 10-20 GBq/μmol. Probes of 1.0 MBq of the radioligand were injected directly from the labelling solution. HSA binding was expressed as an apparent molecular weight MW calculated from the retention time of the radioligand using the determined calibration curve.
# The following table summarizes the underlying data. MW: molecular weight. tR: experimentally determined retention time. V: elution volume. Kav: partition coefficient.
# RIAC, in an inversed way, comprises ligand samples (radiolabeled PSMA ligands) and a protein (HSA) containing mobile phase. Ligand-specific retention is caused by interaction of the ligand probe and HSA in the mobile phase. Unbound species, due to a molecular weight beneath the molecular cut off of the gel filtration column, are maximally retained while bound species are eluted in accordance to the higher molecular weight of the ligand-HSA-complex (MWHSA: 66.47 kDa). Experiments show a single radiopeak indicating a dynamic process of formation and dissociation of the ligand-HSA-complex throughout the passage through the column bed. Accordingly, the absolute retention time is the result of the ligand's mean time of abidance at HSA which is directly defined by the ligand's binding kinetics and affinity toward HSA. For evaluation, experimentally determined retention times tR are first converted into elution volumes Ve by multiplying with the flow rate and thereafter converted into partition coefficients Kav following the equation
# where V0 is the column void volume (8.027 mL) and Vc is the geometric column volume (24 mL). Using the equation given by the trend line plot of the column calibration
# the apparent molecular weight MW is calculated as
# FIG. 7 and the table below show the results HSA-binding of lutetium-complexed PSMA-ligands and reference compounds determined by RIAC on a Superdex 75 Increase 10/300 GL column 700 μM HSA in PBS as solvent using a constant flow rate of 0.8 mL/min (plotted data, extracted from FIG. 8).
# FIG. 8 illustrates the determination of HSA binding via radio inverse affinity chromatography (RIAC). Correlation of apparent molecular weight (MW) in Dalton (Da) and retention time of ^177Lu-labeled samples, determined on a Superdex 75 Increase 10/300 GL with 700 μM HSA in PBS as solvent using a constant flow rate of 0.8 mL/min.
# [2] = test system: LNCaP tumor-bearing CB17-SCID mice; test: Biodistribution studies 24 h p.i.; format: in vivo; conditions: 177Lu-labelled, mean±SD, n=4-5; for biodistribution: tumor: LNCaP xenograft; for biodistribution: blood: i.v. tail vein
# Experimental: All animal experiments were conducted in accordance with general animal welfare regulations in Germany (German animal protection act, as amended on 18 May 2018, Art. 141 G v. 29.3.2017|626, approval no. 55.2-1-54-2532-71-13) and the institutional guidelines for the care and use of animals. To establish tumor xenografts, LNCaP cells (approx. 10^7 cells) were suspended in 200 μL of a 1:1 mixture (v/v) of DMEM F-12 and Matrigel (BD Biosciences, Germany), and inoculated subcutaneously onto the right shoulder of 6-8 weeks old CB17-SCID mice (Charles River, Sulzfeld, Germany). Mice were used for experiments when tumors had grown to a diameter of 5-10 mm (3-6 weeks after inoculation).
# Approximately 5-10 MBq (0.1-0.2 nmol) of the radioactive-labelled PSMA inhibitors were injected into the tail vein of LNCaP tumor-bearing male CB-17 SCID mice and sacrificed after 24 h post injection. Selected organs were removed, weighted and measured in a γ-counter.
# FIG. 10 and the following table show the biodistribution data 24 h p.i. of ^177Lu-labeled compounds in LNCaP tumor-bearing CB17-SCID mice. Data are expressed as mean±SD (n=4-5).
# Sequence of human serum albumin (HSA) (P02768 25-609): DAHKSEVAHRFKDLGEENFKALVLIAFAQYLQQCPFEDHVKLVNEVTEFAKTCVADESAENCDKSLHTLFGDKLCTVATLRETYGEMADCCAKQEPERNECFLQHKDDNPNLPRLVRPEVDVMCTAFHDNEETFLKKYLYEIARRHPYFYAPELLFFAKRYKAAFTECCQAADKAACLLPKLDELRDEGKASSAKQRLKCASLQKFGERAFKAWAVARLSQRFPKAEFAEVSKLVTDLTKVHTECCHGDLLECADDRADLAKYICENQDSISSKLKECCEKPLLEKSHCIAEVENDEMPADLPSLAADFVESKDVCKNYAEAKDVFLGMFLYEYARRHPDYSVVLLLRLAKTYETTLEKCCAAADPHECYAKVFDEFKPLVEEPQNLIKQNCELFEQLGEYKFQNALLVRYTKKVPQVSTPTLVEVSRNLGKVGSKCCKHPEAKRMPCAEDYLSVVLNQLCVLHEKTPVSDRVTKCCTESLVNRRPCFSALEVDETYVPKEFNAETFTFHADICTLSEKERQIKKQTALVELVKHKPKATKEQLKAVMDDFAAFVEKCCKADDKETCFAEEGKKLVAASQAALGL
Structure (SMILES),HSA-binding RIAC (apparent molecular weight) [1],biodistribution: tumor [2],biodistribution: blood [2],biodistribution: bone [2],biodistribution: heart [2],biodistribution: intestine [2],biodistribution: kidneys [2],biodistribution: liver [2],biodistribution: lung [2],biodistribution: muscle [2],biodistribution: pancreas [2],biodistribution: spleen [2],biodistribution: stomach [2],biodistribution: adrenals [2],biodistribution: parotis [2],biodistribution: submandibularis [2]
CC(C)(C)[Si](O)(c1ccc(C(=O)NC[C@@H](NC(=O)CC[C@@H](C(=O)O)N2CCN(CC(=O)O)CCN(CC(=O)O)CCN(CC(=O)O)CC2)C(=O)N[C@H](CCCCNC(=O)CCC(=O)NCCC[C@@H](NC(=O)CC[C@H](NC(=O)N[C@@H](CCC(=O)O)C(=O)O)C(=O)O)C(=O)O)C(=O)O)cc1)C(C)(C)C [7.3-SiOH],10.1 kDa,7.3 ± 0.8 % ID/g,0.002 ± 0.001 % ID/g,0.01 ± 0.01 % ID/g,0.01 ± 0.01 % ID/g,0.45 ± 0.39 % ID/g,3.7 ± 1.9 % ID/g,0.08 ± 0.03 % ID/g,0.03 ± 0.01 % ID/g,0.006 ± 0.005 % ID/g,0.01 ± 0.01 % ID/g,0.21 ± 0.11 % ID/g,0.24 ± 0.36 % ID/g,,,
CC(C)(C)[Si](O)(c1ccc(C(=O)NC[C@@H](NC(=O)CC[C@@H](C(=O)O)N2CCN(CC(=O)O)CCN(CC(=O)O)CCN(CC(=O)O)CC2)C(=O)N[C@H](CO)C(=O)NCCC(=O)NCCC(=O)NCCC[C@@H](NC(=O)CC[C@H](NC(=O)N[C@@H](CCC(=O)O)C(=O)O)C(=O)O)C(=O)O)cc1)C(C)(C)C [C007-SiOH],8.0 kDa,5.4 ± 0.8 % ID/g,0.003 ± 0.001 % ID/g,0.02 ± 0.01 % ID/g,0.02 ± 0.01 % ID/g,0.13 ± 0.08 % ID/g,3.5 ± 1.4 % ID/g,0.40 ± 0.13 % ID/g,0.04 ± 0.01 % ID/g,0.004 ± 0.001 % ID/g,0.01 ± 0.01 % ID/g,0.40 ± 0.10 % ID/g,0.04 ± 0.01 % ID/g,0.20 ± 0.01 % ID/g,0.06 ± 0.03 % ID/g,0.03 ± 0.01 % ID/g
CC(C)(C)[Si](O)(c1ccc(C(=O)NC[C@@H](NC(=O)CC[C@@H](C(=O)O)N2CCN(CC(=O)O)CCN(CC(=O)O)CCN(CC(=O)O)CC2)C(=O)NCC(=O)N[C@@H](CCCCNC(=O)CCC(=O)NCCC[C@@H](NC(=O)CC[C@H](NC(=O)N[C@@H](CCC(=O)O)C(=O)O)C(=O)O)C(=O)O)C(=O)O)cc1)C(C)(C)C [E102-SiOH],9.3 kDa,4.4 ± 0.6 % ID/g,0.002 ± 0.001 % ID/g,0.03 ± 0.01 % ID/g,0.02 ± 0.02 % ID/g,0.43 ± 0.31 % ID/g,3.3 ± 2.9 % ID/g,0.05 ± 0.02 % ID/g,0.04 ± 0.02 % ID/g,0.001 ± 0.001 % ID/g,0.01 ± 0.01 % ID/g,0.13 ± 0.10 % ID/g,0.08 ± 0.07 % ID/g,0.05 ± 0.03 % ID/g,0.02 ± 0.01 % ID/g,0.01 ± 0.01 % ID/g
CC(C)(C)[Si](O)(c1ccc(C(=O)NC[C@@H](NC(=O)CCCCCNC(=O)CCCNC(=O)CC[C@@H](NC(=O)CCC(NC(=O)N[C@@H](CCC(=O)O)C(=O)O)C(=O)O)C(=O)O)C(=O)NCC(=O)N[C@@H](CCCCNC(=O)CC[C@@H](C(=O)O)N2CCN(CC(=O)O)CCN(CC(=O)O)CCN(CC(=O)O)CC2)C(=O)O)cc1)C(C)(C)C (some centres unmarked) [E104-SiOH],7.8 kDa,,,,,,,,,,,,,,,
CC(C)(C)[Si](O)(c1ccc(C(=O)N[C@H](CCC(=O)NC[C@@H](NC(=O)CC[C@@H](C(=O)O)N2CCN(CC(=O)O)CCN(CC(=O)O)CCN(CC(=O)O)CC2)C(=O)NCCCCCC(=O)NCCC[C@@H](NC(=O)CC[C@H](NC(=O)N[C@@H](CCC(=O)O)C(=O)O)C(=O)O)C(=O)O)C(=O)O)cc1)C(C)(C)C [P105-SiOH],10.4 kDa,6.3 ± 2.1 % ID/g,0.004 ± 0.003 % ID/g,0.02 ± 0.01 % ID/g,0.01 ± 0.01 % ID/g,0.08 ± 0.05 % ID/g,4.2 ± 2.5 % ID/g,0.37 ± 0.07 % ID/g,0.04 ± 0.01 % ID/g,0.004 ± 0.001 % ID/g,0.01 ± 0.01 % ID/g,0.31 ± 0.10 % ID/g,0.02 ± 0.01 % ID/g,0.12 ± 0.01 % ID/g,0.07 ± 0.03 % ID/g,0.03 ± 0.01 % ID/g
CC(C)(C)[Si](O)(c1ccc(C[N+](C)(C)CC(=O)NCCC[C@@H](NC(=O)CC[C@@H](C(=O)O)N2CCN(CC(=O)O)CCN(CC(=O)O)CCN(CC(=O)O)CC2)C(=O)NCCCCCC(=O)NCCC[C@@H](NC(=O)CC[C@H](NC(=O)N[C@@H](CCC(=O)O)C(=O)O)C(=O)O)C(=O)O)cc1)C(C)(C)C [P110-SiOH],5.2 kDa,,,,,,,,,,,,,,,
"O=C(O)CC[C@H](NC(=O)N[C@@H](CCCCNC(=O)[C@H](Cc1ccc2ccccc2c1)NC(=O)[C@H]1CC[C@H](CNC(=O)CN2CCN(CC(=O)O)CCN(CC(=O)O)CCN(CC(=O)O)CC2)CC1)C(=O)O)C(=O)O [PSMA-617, reference compound]",13.7 kDa,7.5 ± 0.9 % ID/g,0.006 ± 0.01 % ID/g,0.03 ± 0.01 % ID/g,0.01 ± 0.01 % ID/g,0.12 ± 0.08 % ID/g,1.4 ± 0.4 % ID/g,0.12 ± 0.06 % ID/g,0.04 ± 0.01 % ID/g,0.01 ± 0.01 % ID/g,0.01 ± 0.01 % ID/g,0.08 ± 0.01 % ID/g,0.02 ± 0.01 % ID/g,0.13 ± 0.12 % ID/g,,
"CC(C)(C)[Si](F)(c1ccc(C(=O)NC[C@@H](NC(=O)CC[C@@H](C(=O)O)N2CCN(CC(=O)O)CCN(CC(=O)O)CCN(CC(=O)O)CC2)C(=O)N[C@H](CCCCNC(=O)CCC(=O)NCCC[C@@H](NC(=O)CC[C@H](NC(=O)N[C@@H](CCC(=O)O)C(=O)O)C(=O)O)C(=O)O)C(=O)O)cc1)C(C)(C)C [rhPSMA-7.3, reference compound]",30.2 kDa,7.6 ± 0.5 % ID/g,0.004 ± 0.002 % ID/g,0.02 ± 0.01 % ID/g,0.03 ± 0.01 % ID/g,0.12 ± 0.03 % ID/g,13.2 ± 6.7 % ID/g,0.22 ± 0.03 % ID/g,0.06 ± 0.02 % ID/g,0.012 ± 0.004 % ID/g,0.02 ± 0.01 % ID/g,0.51 ± 0.22 % ID/g,0.05 ± 0.01 % ID/g,,0.22 ± 0.16 % ID/g,0.05 ± 0.02 % ID/g
